{
  "source": "patent US7445894B2",
  "about": "“Compositions and methods for detection and isolation of phosphorylated molecules” (priority 2002, dated 2008)",
  "key": {"lysozyme": {"biological_target": "T1, lysozyme (Gallus gallus, UniProt P00698)", "T1 construct": "purchased Sigma Chemical Company L-7651", "T1 sequence (P00698 19-147)": "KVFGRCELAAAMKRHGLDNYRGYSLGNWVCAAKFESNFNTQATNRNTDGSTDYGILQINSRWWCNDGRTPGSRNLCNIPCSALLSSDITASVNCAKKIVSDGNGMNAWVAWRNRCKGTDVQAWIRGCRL", "experiment": "Fluorescence polarization of Compound 2-Ga3+ with non-phosphorylated control protein", "format": "binding", "settings": "1.0 μM Compound 2, 100 μM lysozyme plus 1 μM gallium chloride", "description": "First, an assay was conducted with a (1) phosphoprotein (ovalbumin) and a (2) control non-phosphorylated protein (lysozyme). A modified binding solution containing 1.0 μM Compound 2 was incubated in 50 mM 2-(N-morpholino)ethanesulfonic acid (pH 3.0 to 3.5), 500 mM NaCl at room temperature in parallel to solutions containing, in addition, (a) 1 μM gallium chloride, (b) 100 μM lysozyme plus 1 μM gallium chloride, or (c) and 100 μM ovalbumin plus 1 μM gallium chloride. The fluorescence polarization of the resulting solutions was then measured in a fluorescence spectrophotometer with excitation at 530 nm and emission at 545 to 700 nm. The integrated polarized emission spectra yielded anisotropy “r values” of: r=0.10+/−0.003+/−0.02 (Compound 2 plus gallium); r=0.10+/−0.002 (Compound 2 plus lysozyme non-phosphorylated control); r=0.34+/−0.002 (Compound 2 plus gallium plus ovalbumin), indicating phosphorylation-dependent binding of the Compound 2 to this phosphoprotein (see FIG. 10A)"}, "pepsin": {"biological_target": "pepsin (Sus scrofa, UniProt P00791)", "sequence (P00791 60-385)": "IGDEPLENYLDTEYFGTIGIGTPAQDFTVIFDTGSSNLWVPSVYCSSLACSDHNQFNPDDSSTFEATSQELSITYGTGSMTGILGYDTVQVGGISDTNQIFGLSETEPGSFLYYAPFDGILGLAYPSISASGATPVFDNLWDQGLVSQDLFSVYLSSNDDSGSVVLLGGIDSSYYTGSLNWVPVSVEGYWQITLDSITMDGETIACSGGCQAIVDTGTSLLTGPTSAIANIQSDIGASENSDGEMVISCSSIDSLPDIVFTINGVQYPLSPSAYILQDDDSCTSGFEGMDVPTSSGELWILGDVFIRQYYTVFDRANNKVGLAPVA", "experiment": "Detection of phosphoproteins in SDS-polyacrylamide gels with binding solution", "settings": "monophosphorylated protein, binding solution with gallium chloride, SDS polyacrylamide mini-gel", "description": "(§1) Proteins were loaded in two-fold dilution series on SDS polyacrylamide mini-gels from 2 ng-1000 ng; each protein sample was done in series in four replicate gels. The phosphoproteins were α-casein (7 or 8 phosphates); dephosphorylated α-casein (1 or 2 phosphates); β-casein (5 phosphates); ovalbumin (2 phosphates) and pepsin (1 phosphate). BSA contains no phosphates and was used as a negative control.\n(§2) Phosphoproteins were separated by SDS-polyacrylamide gel electrophoresis utilizing a 4% T, 2.6% C stacking gel, pH 6.8 and 13% T, 2.6% C separating gel, and pH 8.8, according to standard procedures. % T is the total monomer concentration (acrylamide+crosslinker) expressed in grams per 100 mL and % C is the percentage crosslinker (e.g., N,N′-methylene-bis-acrylamide, N,N′-diacryloylpiperazine or other suitable agent). The separating gels were 8 cm wide by 5 cm high and […] in thickness. After electrophoresis, the gels were fixed by immersing them in 100 mL 45% methanol and 5% acetic acid for 90 minutes. The gels were washed twice in water for a total of 30 minutes. The gels were then added to a binding solution of the invention (Example 1E) and incubated for 120 minutes at room temperature with gentle orbital shaking, typically 50 rpm. The binding buffer contained 50 mM NaOAc (pH 4.0), 250 mM sodium chloride, 20% v/v 1,2-propanediol, 1 μM gallium chloride. […]"}, "β-casein": {"biological_target": "T2, β-casein (Bos taurus, UniProt P02666)", "T2 sequence (P02666 16-224)": "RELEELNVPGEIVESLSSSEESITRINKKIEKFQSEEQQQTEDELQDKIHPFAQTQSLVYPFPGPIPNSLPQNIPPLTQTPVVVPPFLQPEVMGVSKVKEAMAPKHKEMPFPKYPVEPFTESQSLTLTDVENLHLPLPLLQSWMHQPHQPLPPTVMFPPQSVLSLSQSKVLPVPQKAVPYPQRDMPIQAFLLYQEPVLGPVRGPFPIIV", "experiment": "Detection of phosphoproteins in SDS-polyacrylamide gels with binding solution", "settings": "pentaphosphorylated protein, binding solution with gallium chloride, SDS polyacrylamide mini-gel", "description": "as §1, §2"}},
  "data": [
    {"substance": "Rhod-5F [Compound 2]", "values": [
      {"measurement": "anisotropy r value", "setting": "lysozyme", "value": "0.10+/−0.002"},
      {"measurement": "amount detectable in gel", "setting": "pepsin", "value": 8, "unit": "ng"},
      {"measurement": "amount detectable in gel", "setting": "β-casein", "value": "1 to 2", "unit": "ng"}
    ]}
  ]
}
